Data reported in PubChem BioAssay AID328 (DTP/NCI, 2004).
Where “and” joins values, the source holds several entries; their conditions need not be identical. Identical values can stand only once. Toxic doses and inconclusive results are not listed.

System: BDF1 mice, P388 leukemia ip, median survival T/C
Experiment: NCI In Vivo Anticancer Drug Screen. Data for tumor model P388 Leukemia (intraperitoneal) in B6D2F1 (BDF1) mice
Conditions: endpoint: median survival time, higher = longer survival
Outline: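 Antitumour effect was judged in vivo: survival in drug-treated mice, normalised to that of vehicle-dosed controls, gives the reported T/C.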

[1] = dose: 100.0 mg/kg/injection, schedule: Q04DX003 (ip), vehicle: saline
[2] = dose: 200.0 mg/kg/injection, schedule: Q04DX003 (ip), vehicle: saline
[3] = dose: 400.0 mg/kg/injection, schedule: Q04DX003 (ip), vehicle: saline
[4] = dose: 100.0 mg/kg/injection, schedule: Q04DX003 (ip), vehicle: saline with Tween-80
[5] = dose: 200.0 mg/kg/injection, schedule: Q04DX003 (ip), vehicle: saline with Tween-80
[6] = dose: 400.0 mg/kg/injection, schedule: Q04DX003 (ip), vehicle: saline with Tween-80
[7] = dose: 50.0 mg/kg/injection, schedule: Q01DX009 (ip), vehicle: saline
[8] = dose: 100.0 mg/kg/injection, schedule: Q01DX009 (ip), vehicle: saline
[9] = dose: 400.0 mg/kg/injection, schedule: Q01DX009 (ip), vehicle: saline
[10] = dose: 25.0 mg/kg/injection, schedule: Q01DX009 (ip), vehicle: saline with Tween-80
[11] = dose: 100.0 mg/kg/injection, schedule: Q01DX009 (ip), vehicle: saline with Tween-80
[12] = dose: 200.0 mg/kg/injection, schedule: Q01DX009 (ip), vehicle: saline with Tween-80
[13] = dose: 400.0 mg/kg/injection, schedule: Q01DX009 (ip), vehicle: saline with Tween-80
[14] = dose: 50.0 mg/kg/injection, schedule: Q01DX009 (ip), vehicle: saline with Tween-80

c1ccc2c(c1)[nH]c1nc3ncncc3nc12
T/C [1]: 122 % of control | T/C [2]: 100 % of control | T/C [3]: 100 % of control

COC(=O)C(Br)C(Br)c1ccc(-c2ccccc2)cc1 (stereo not drawn)
T/C [4]: 92 % of control | T/C [5]: 89 % of control | T/C [6]: 104 % of control

OCc1ccc(Cl)c(Cl)c1
T/C (dose: 100.0 mg/kg/injection, schedule: Q04DX003 (ip), vehicle: other): 104 % of control | T/C (dose: 200.0 mg/kg/injection, schedule: Q04DX003 (ip), vehicle: other): 104 % of control | T/C (dose: 400.0 mg/kg/injection, schedule: Q04DX003 (ip), vehicle: other): 100 % of control

S=c1cc(-c2cccs2)ss1
T/C [7]: 109 % of control | T/C (dose: 50.0 mg/kg/injection, schedule: Q04DX003 (ip), vehicle: saline): 108 % of control | T/C [8]: 96 % of control | T/C [1]: 115 % of control | T/C (dose: 200.0 mg/kg/injection, schedule: Q01DX009 (ip), vehicle: saline): 100 % of control | T/C [2]: 105 % of control | T/C [9]: 91 % of control | T/C [3]: 107 % of control

CC(C)=CCC/C(C)=C\C=N\NS(=O)(=O)c1ccc([N+](=O)[O-])cc1
T/C (dose: 6.25 mg/kg/injection, schedule: Q01DX009 (ip), vehicle: saline with Tween-80): 99 % of control | T/C (dose: 12.5 mg/kg/injection, schedule: Q01DX009 (ip), vehicle: saline with Tween-80): 103 % of control | T/C [10]: 103 % of control

CCOC(=O)CN(C)C#N
T/C [7]: 110 % of control | T/C (dose: 87.5 mg/kg/injection, schedule: Q01DX009 (ip), vehicle: saline): 109 % of control | T/C [8]: 105 % of control | T/C [1]: 104 % of control | T/C (dose: 175.0 mg/kg/injection, schedule: Q01DX009 (ip), vehicle: saline): 104 % of control | T/C [2]: 104 % of control | T/C (dose: 265.0 mg/kg/injection, schedule: Q01DX009 (ip), vehicle: saline): 109 % of control | T/C [9]: 95 % of control | T/C [3]: 104 % of control

CCCNC(=O)Nc1cccc(Cl)c1C
T/C [4]: 104 % of control | T/C [5]: 100 % of control | T/C [6]: 100 % of control

O=C(c1ccccc1)c1ccccc1
T/C (dose: 100.0 mg/kg/injection, schedule: Q01DX001 (ip), vehicle: Klucel (hydroxypropylcellulose) (HPC)): 100 % of control | T/C (dose: 200.0 mg/kg/injection, schedule: Q01DX001 (ip), vehicle: Klucel (hydroxypropylcellulose) (HPC)): 100 % of control | T/C (dose: 400.0 mg/kg/injection, schedule: Q01DX001 (ip), vehicle: Klucel (hydroxypropylcellulose) (HPC)): 116 % of control

COc1ccc(C2(C(=O)O)CC2)cc1
T/C [11]: 111 % of control | T/C [4]: 109 % of control | T/C [12]: 100 % of control | T/C [5]: 109 % of control | T/C [13]: 96 % of control | T/C [6]: 113 % of control

CS(=O)(=O)OCCN(CCOS(C)(=O)=O)c1ccc(N=O)cc1
T/C (dose: 0.5 mg/kg/injection, schedule: Q01DX010 (ip), vehicle: saline): 122 % of control | T/C (dose: 1.0 mg/kg/injection, schedule: Q01DX010 (ip), vehicle: saline): 104 % of control | T/C (dose: 2.0 mg/kg/injection, schedule: Q01DX010 (ip), vehicle: saline): 86 % of control and 113 % of control | T/C (dose: 62.5 micrograms/kg/injection, schedule: Q01DX010 (ip), vehicle: saline): 158 % of control | T/C (dose: 125.0 micrograms/kg/injection, schedule: Q01DX010 (ip), vehicle: saline): 166 % of control

COc1ccc(C2NC(=O)NC2=O)cc1OC (stereo not drawn)
T/C (dose: 50.0 mg/kg/injection, schedule: Q01DX001 (ip), vehicle: saline sonified): 100 % of control | T/C (dose: 100.0 mg/kg/injection, schedule: Q01DX001 (ip), vehicle: saline sonified): 100 % of control | T/C (dose: 200.0 mg/kg/injection, schedule: Q01DX001 (ip), vehicle: saline sonified): 100 % of control

Nc1nnc(N)s1
T/C (dose: 100.0 mg/kg/injection, schedule: Q04DX003 (ip), vehicle: saline sonified): 100 % of control | T/C (dose: 200.0 mg/kg/injection, schedule: Q04DX003 (ip), vehicle: saline sonified): 100 % of control | T/C (dose: 400.0 mg/kg/injection, schedule: Q04DX003 (ip), vehicle: saline sonified): 100 % of control

C=CCOP(OCC=C)OCC=C
T/C (dose: 25.0 mg/kg/injection, schedule: Q01DX009 (ip), vehicle: saline): 90 % of control | T/C (dose: 25.0 mg/kg/injection, schedule: Q04DX003 (ip), vehicle: saline): 95 % of control | T/C [7]: 90 % of control | T/C [8]: 104 % of control | T/C [1]: 100 % of control

COc1ccc(NC(=O)Oc2c(C(C)C)cccc2C(C)C)cc1
T/C (dose: 100.0 mg/kg/injection, schedule: Q04DX003 (ip), vehicle: Klucel (hydroxypropylcellulose) (HPC)): 100 % of control | T/C (dose: 200.0 mg/kg/injection, schedule: Q04DX003 (ip), vehicle: Klucel (hydroxypropylcellulose) (HPC)): 91 % of control | T/C (dose: 400.0 mg/kg/injection, schedule: Q04DX003 (ip), vehicle: Klucel (hydroxypropylcellulose) (HPC)): 100 % of control

O=C(NNc1ccccc1)C12CC3CC(CC(C3)C1)C2
T/C [14]: 96 % of control | T/C [11]: 91 % of control

CC1=COC2CCCCC2O1 (stereo not drawn) (tested in a mixture with another compound)
T/C (dose: 100.0 mg/kg/injection, schedule: Q01DX009 (ip), vehicle: acetone): 104 % of control | T/C (dose: 200.0 mg/kg/injection, schedule: Q01DX009 (ip), vehicle: acetone): 96 % of control | T/C (dose: 400.0 mg/kg/injection, schedule: Q01DX009 (ip), vehicle: acetone): 96 % of control

COC(=O)CCC(=O)CCC(C)C
T/C [10]: 107 % of control | T/C [14]: 103 % of control | T/C [11]: 92 % of control | T/C [4]: 111 % of control | T/C [12]: 103 % of control | T/C [5]: 122 % of control | T/C [13]: 92 % of control | T/C [6]: 116 % of control
